Experimental data: patent US4161520A, “Method of treating hypertension” (priority 1976, dated 1979)

How the values were obtained:
Assay type in all cases: in vivo
DOCA Na hypertensive rat = assay: Antihypertensive activity, subacute oral dosing in the DOCA Na rat (Example 1, Table I)
Method: A test was conducted for antihypertensive activity in the DOCA Na rat. DOCA rats weighing 170 to 210 grams are used in the test. DOCA Na hypertension is induced by unilateral nephrectomy followed by subcutaneous implantation of a 25 mg. desoxycorticosterone (DOCA) pellet. Animals are placed in individual cages receiving 0.9% sodium chloride solution to drink and rat chow diet ad libitum. Two weeks are allowed to elapse from the time of surgery for development of hypertension, i.e., systolic blood pressure of at least 150 mmHg.
Systolic blood pressure and heart rate are measured indirectly from the tail pressure pulse of unanesthetized rats, using a pneumatic pulse transducer. Control readings are taken prior to drug and post drug readings are taken at 1, 3, 6 and 24 hours.
The experimental results are represented as absolute values. Drug-related alterations in systolic blood pressure are expressed as percentage change by comparing control absolute values with post drug absolute values. Compounds are considered active when about a 15% or greater reduction in blood pressure is obtained. However, the reduction in blood pressure must show mathematical significance ([…]).
A derivative of the polyether ionophore, lasalocid, i.e., the bromo derivative of lasalocid, was tested in the above screen. The compound was orally administered for a five-day period by intubation and thereafter dosing was discontinued but blood pressure monitoring was continued. The following table illustrates the results obtained utilizing bromolasalocid as the test drug.

[1] = test system: spontaneous hypertensive (SH) rat; assay: Effects on blood pressure in the spontaneous hypertensive (SH) rat (Example 2, Table II)
Method: Test conducted for effects on blood pressure in the spontaneous hypertensive (SH) rat.
Twelve week old spontaneous hypertensive male rats (Okomoto strain) are used as a model in the antihypertensive test.
Systolic blood pressure is measured indirectly from the tail of unanesthetized rats using a pneumatic pulse transducer. Control readings are taken prior to drug administration and post drug readings are taken at 1, 3, 6 and 24 hours.
Drug-related alteration in systolic blood pressure is expressed as percentage change by comparing control absolute values with post drug absolute values.
The results are expressed as absolute values and percent changes from controls.
Compounds are considered active when about a 15% or greater reduction in blood pressure is obtained. However, the reduction in blood pressure must show mathematical significance ([…]). The compound was administered for a five-day period by intubation and thereafter dosing was discontinued but blood pressure monitoring was continued.

DOCA Na rat = assay: Low dose chronic administration in the DOCA Na rat (Example 4, Table IV); details: for Stroke Volume Index, mean value: control 4.82±0.31; for Pulse pressure, mean value: control 62.5±5.3; for Arterial blood pressure, mean value: control 175.0±3.8; for Arterial blood pressure, % Δ / Pulse pressure, % Δ / Stroke Volume Index, % Δ: vs control
Method: A test was conducted for antihypertensive activity in the DOCA Na rat utilizing low dose chronic administration.
DOCA Na male rats weighing 170 to 210 grams are used in the test. DOCA Na hypertension is induced by unilateral nephrectomy followed by subcutaneous implantation of a 25 mg. desoxycorticosterone (DOCA) pellet. Animals are placed in individual cages receiving 0.9% sodium chloride solution to drink and rat chow diet ad libitum. Two weeks are allowed to elapse from the time of surgery for development of hypertension, i.e., systolic blood pressure of at least 150 mmHg.
Mean blood pressure and heart rate in the rats dosed at 5 mg/kg/day, 1 mg/kg/day, 0.1 mg/kg/day and as those used as controls are measured directly by placing a polyethylene catheter in a femoral artery and thereafter measuring the blood pressure by a Stathem Pressure Transducer. Control animals and drug dosed subjects are measured side by side. Direct readings were taken when the animal model began to show signs of inherent deterioration.
The experimental results are represented as absolute values. Drug-related alterations in mean blood pressure are expressed as percentage change by comparing control absolute values with drug absolute values. Compounds are considered active when about a 15% or greater reduction in blood pressure is obtained. However, the reduction in blood pressure must show mathematical significance ([…]).
A derivative of the polyether ionophore, laslaocid, i.e., the bromo derivative of lasalocid, was tested in the above screen. The compound was administered in a food admix on a daily basis.

[2] = Oral (per os) toxicity (LD50); details: in vivo, read-out: LD50
[3] = 0.1 mg/kg/day in food admix, at 24 Days
[4] = 1 mg/kg/day in food admix, at 28 Days
[5] = 5 mg/kg/day in food admix, at 11 Days

Structure (SMILES): CC[C@@H](C(=O)[C@@H](C)[C@@H](O)[C@H](C)CCc1c(Br)cc(C)c(O)c1C(=O)O)[C@H]1O[C@](CC)([C@H]2CC[C@](O)(CC)[C@H](C)O2)C[C@@H]1C [bromolasalocid]
- Average Systolic Blood Pressure Per Group (DOCA Na hypertensive rat; 5 mg/kg per day oral for 5 days, Day 2 am, pre-drug 209): 206 mmHg
- Average Systolic Blood Pressure Per Group (DOCA Na hypertensive rat; 5 mg/kg per day oral for 5 days, Day 2 pm, pre-drug 209): 194 mmHg
- Average Systolic Blood Pressure Per Group (DOCA Na hypertensive rat; 5 mg/kg per day oral for 5 days, Day 3 pm, pre-drug 209): 191 mmHg
- Average Systolic Blood Pressure Per Group (DOCA Na hypertensive rat; 5 mg/kg per day oral for 5 days, Day 4 am, pre-drug 209): 206 mmHg
- Average Systolic Blood Pressure Per Group (DOCA Na hypertensive rat; 5 mg/kg per day oral for 5 days, Day 5 am, pre-drug 209): 197 mmHg
- Average Systolic Blood Pressure Per Group (DOCA Na hypertensive rat; 5 mg/kg per day oral for 5 days, Day 5 pm, pre-drug 209): 196 mmHg
- Average Systolic Blood Pressure Per Group (DOCA Na hypertensive rat; 10 mg/kg per day oral for 5 days, Day 1 pm, pre-drug 217, p<.05): 192 mmHg
- Average Systolic Blood Pressure Per Group (DOCA Na hypertensive rat; 10 mg/kg per day oral for 5 days, Day 2 am, pre-drug 217, p<.05): 181 mmHg
- Average Systolic Blood Pressure Per Group (DOCA Na hypertensive rat; 10 mg/kg per day oral for 5 days, Day 2 pm, pre-drug 217, p<.05): 166 mmHg
- Average Systolic Blood Pressure Per Group (DOCA Na hypertensive rat; 10 mg/kg per day oral for 5 days, Day 3 am, pre-drug 217, p<.05): 171 mmHg
- Average Systolic Blood Pressure Per Group (DOCA Na hypertensive rat; 10 mg/kg per day oral for 5 days, Day 3 pm, pre-drug 217, p<.05): 163 mmHg
- Average Systolic Blood Pressure Per Group (DOCA Na hypertensive rat; 10 mg/kg per day oral for 5 days, Day 4 am, pre-drug 217, p<.05): 173 mmHg
- Average Systolic Blood Pressure Per Group (DOCA Na hypertensive rat; 10 mg/kg per day oral for 5 days, Day 4 pm, pre-drug 217, p<.05): 157 mmHg
- Average Systolic Blood Pressure Per Group (DOCA Na hypertensive rat; 10 mg/kg per day oral for 5 days, Day 5 pm, pre-drug 217, p<.05): 166 mmHg
- Period for which blood pressure remained below control after drug dosing (DOCA Na hypertensive rat; after oral dosing for the first five consecutive days): 10 days
- Average Systolic Blood Pressure Per Group ([1]; 10 mg/kg per day for 5 days, Day 1 pm, pre-drug 227, p<.05): 211 mmHg
- Average Systolic Blood Pressure Per Group ([1]; 10 mg/kg per day for 5 days, Day 2 am, pre-drug 227): 215 mmHg
- Average Systolic Blood Pressure Per Group ([1]; 10 mg/kg per day for 5 days, Day 2 pm, pre-drug 227): 217 mmHg
- Average Systolic Blood Pressure Per Group ([1]; 10 mg/kg per day for 5 days, Day 3 am, pre-drug 227, p<.05): 203 mmHg
- Average Systolic Blood Pressure Per Group ([1]; 10 mg/kg per day for 5 days, Day 3 pm, pre-drug 227, p<.05): 199 mmHg
- Average Systolic Blood Pressure Per Group ([1]; 10 mg/kg per day for 5 days, Day 4 am, pre-drug 227, p<.05): 193 mmHg
- Average Systolic Blood Pressure Per Group ([1]; 10 mg/kg per day for 5 days, Day 4 pm, pre-drug 227, p<.05): 198 mmHg
- Average Systolic Blood Pressure Per Group ([1]; 10 mg/kg per day for 5 days, Day 5 am, pre-drug 227, p<.05): 200 mmHg
- Average Systolic Blood Pressure Per Group ([1]; 10 mg/kg per day for 5 days, Day 5 pm, pre-drug 227, p<.05): 209 mmHg
- Average Systolic Blood Pressure Per Group ([1]; 10 mg/kg per day for 5 days, Day 8 am, pre-drug 227, p<.05): 199 mmHg
- Average Systolic Blood Pressure Per Group ([1]; 20 mg/kg per day for 5 days, Day 1 pm, pre-drug 211): 201 mmHg
- Average Systolic Blood Pressure Per Group ([1]; 20 mg/kg per day for 5 days, Day 2 am, pre-drug 211): 209 mmHg
- Average Systolic Blood Pressure Per Group ([1]; 20 mg/kg per day for 5 days, Day 2 pm, pre-drug 211): 200 mmHg
- Average Systolic Blood Pressure Per Group ([1]; 20 mg/kg per day for 5 days, Day 3 am, pre-drug 211): 214 mmHg
- Average Systolic Blood Pressure Per Group ([1]; 20 mg/kg per day for 5 days, Day 3 pm, pre-drug 211): 209 mmHg
- Average Systolic Blood Pressure Per Group ([1]; 20 mg/kg per day for 5 days, Day 4 am, pre-drug 211): 205 mmHg
- Average Systolic Blood Pressure Per Group ([1]; 20 mg/kg per day for 5 days, Day 4 pm, pre-drug 211): 204 mmHg
- Average Systolic Blood Pressure Per Group ([1]; 20 mg/kg per day for 5 days, Day 5 am, pre-drug 211): 210 mmHg
- Average Systolic Blood Pressure Per Group ([1]; 20 mg/kg per day for 5 days, Day 5 pm, pre-drug 211, p<.05): 187 mmHg
- Average Systolic Blood Pressure Per Group ([1]; 20 mg/kg per day for 5 days, Day 8 am, pre-drug 211): 210 mmHg
- Average Systolic Blood Pressure Per Group ([1]; 50 mg/kg per day for 5 days, Day 1 pm, pre-drug 215): 208 mmHg
- Average Systolic Blood Pressure Per Group ([1]; 50 mg/kg per day for 5 days, Day 2 am, pre-drug 215, p<.05): 193 mmHg
- Average Systolic Blood Pressure Per Group ([1]; 50 mg/kg per day for 5 days, Day 2 pm, pre-drug 215, p<.05): 176 mmHg
- Average Systolic Blood Pressure Per Group ([1]; 50 mg/kg per day for 5 days, Day 3 am, pre-drug 215, p<.05): 175 mmHg
- Average Systolic Blood Pressure Per Group ([1]; 50 mg/kg per day for 5 days, Day 3 pm, pre-drug 215, p<.05): 160 mmHg
- Average Systolic Blood Pressure Per Group ([1]; 50 mg/kg per day for 5 days, Day 4 am, pre-drug 215, p<.05): 183 mmHg
- Average Systolic Blood Pressure Per Group ([1]; 50 mg/kg per day for 5 days, Day 4 pm, pre-drug 215, p<.05): 169 mmHg
- Average Systolic Blood Pressure Per Group ([1]; 50 mg/kg per day for 5 days, Day 5 am, pre-drug 215, p<.05): 184 mmHg
- Average Systolic Blood Pressure Per Group ([1]; 50 mg/kg per day for 5 days, Day 5 pm, pre-drug 215, p<.05): 167 mmHg
- Average Systolic Blood Pressure Per Group ([1]; 50 mg/kg per day for 5 days, Day 8 am, pre-drug 215): 207 mmHg
- Average Systolic Blood Pressure Per Group ([1]; 100 mg/kg per day for 5 days, Day 1 pm, pre-drug 218, p<.05): 176 mmHg
- Average Systolic Blood Pressure Per Group ([1]; 100 mg/kg per day for 5 days, Day 2 am, pre-drug 218, p<.05): 185 mmHg
- Average Systolic Blood Pressure Per Group ([1]; 100 mg/kg per day for 5 days, Day 2 pm, pre-drug 218, p<.05): 142 mmHg
- Average Systolic Blood Pressure Per Group ([1]; 100 mg/kg per day for 5 days, Day 3 am, pre-drug 218, p<.05): 128 mmHg
- Average Systolic Blood Pressure Per Group ([1]; 100 mg/kg per day for 5 days, Day 3 pm, pre-drug 218, p<.05): 123 mmHg
- Average Systolic Blood Pressure Per Group ([1]; 100 mg/kg per day for 5 days, Day 4 am, pre-drug 218, p<.05): 113 mmHg
- Average Systolic Blood Pressure Per Group ([1]; 100 mg/kg per day for 5 days, Day 4 pm, pre-drug 218, p<.05): 131 mmHg
- Average Systolic Blood Pressure Per Group ([1]; 100 mg/kg per day for 5 days, Day 5 pm, pre-drug 218, p<.05): 108 mmHg
- Stroke Volume Index, mean value (DOCA Na rat; [3]): 4.03±0.17
- Pulse pressure, mean value (DOCA Na rat; [3]): 41.1±7.4
- Arterial blood pressure, mean value (DOCA Na rat; [3]): 132.4±16.0
- Arterial blood pressure, % Δ (DOCA Na rat; [3]): -24.34%
- Pulse pressure, % Δ (DOCA Na rat; [3]): -34.24%
- Stroke Volume Index, % Δ (DOCA Na rat; [3]): -16.39%
- Stroke Volume Index, mean value (DOCA Na rat; [4]): 5.86±.31
- Pulse pressure, mean value (DOCA Na rat; [4]): 45±3.5
- Arterial blood pressure, mean value (DOCA Na rat; [4]): 140.1±16
- Arterial blood pressure, % Δ (DOCA Na rat; [4]): -19.94%
- Pulse pressure, % Δ (DOCA Na rat; [4]): -28.00%
- Stroke Volume Index, % Δ (DOCA Na rat; [4]): 21.58%
- Stroke Volume Index, mean value (DOCA Na rat; [5]): 4.96±0.61
- Pulse pressure, mean value (DOCA Na rat; [5]): 47.4±7.3
- Arterial blood pressure, mean value (DOCA Na rat; [5]): 140.0±12.6
- Arterial blood pressure, % Δ (DOCA Na rat; [5]): -20.00%
- Pulse pressure, % Δ (DOCA Na rat; [5]): -24.16%
- Stroke Volume Index, % Δ (DOCA Na rat; [5]): 2.90%
- blood pressure (in words) (DOCA Na rat; chronic administration): lowered
- pulse pressure (in words) (DOCA Na rat; chronic administration): lowered
- pump performance (in words) (DOCA Na rat; chronic administration): competent
- stroke volume index (in words) (DOCA Na rat; chronic administration): no significant alteration has occurred
- LD50 [2]: 1200 mg/kg
